Data as given in ChEMBL document CHEMBL2321667, “Imidazopyridine-Based Fatty Acid Synthase Inhibitors That Show Anti-HCV Activity and in Vivo Target Modulation” (ACS Med Chem Lett, 2013).
pEC50, pIC50: −log10 of the molar value.

Legend:
[1] = tested on: Hepatitis C virus; test: microbe, parasite or virus in culture; conditions: genotype 1b, Huh-7, 72 h
[2] = in vitro; conditions: human, huh-7
[3] = biological target: Fatty acid synthase (Rattus norvegicus, UniProt P12785)
[4] = in vitro; conditions: plasma
[5] = in vitro; conditions: dog, MDCK

Fatty acid synthase, sequence (P12785 whole entry): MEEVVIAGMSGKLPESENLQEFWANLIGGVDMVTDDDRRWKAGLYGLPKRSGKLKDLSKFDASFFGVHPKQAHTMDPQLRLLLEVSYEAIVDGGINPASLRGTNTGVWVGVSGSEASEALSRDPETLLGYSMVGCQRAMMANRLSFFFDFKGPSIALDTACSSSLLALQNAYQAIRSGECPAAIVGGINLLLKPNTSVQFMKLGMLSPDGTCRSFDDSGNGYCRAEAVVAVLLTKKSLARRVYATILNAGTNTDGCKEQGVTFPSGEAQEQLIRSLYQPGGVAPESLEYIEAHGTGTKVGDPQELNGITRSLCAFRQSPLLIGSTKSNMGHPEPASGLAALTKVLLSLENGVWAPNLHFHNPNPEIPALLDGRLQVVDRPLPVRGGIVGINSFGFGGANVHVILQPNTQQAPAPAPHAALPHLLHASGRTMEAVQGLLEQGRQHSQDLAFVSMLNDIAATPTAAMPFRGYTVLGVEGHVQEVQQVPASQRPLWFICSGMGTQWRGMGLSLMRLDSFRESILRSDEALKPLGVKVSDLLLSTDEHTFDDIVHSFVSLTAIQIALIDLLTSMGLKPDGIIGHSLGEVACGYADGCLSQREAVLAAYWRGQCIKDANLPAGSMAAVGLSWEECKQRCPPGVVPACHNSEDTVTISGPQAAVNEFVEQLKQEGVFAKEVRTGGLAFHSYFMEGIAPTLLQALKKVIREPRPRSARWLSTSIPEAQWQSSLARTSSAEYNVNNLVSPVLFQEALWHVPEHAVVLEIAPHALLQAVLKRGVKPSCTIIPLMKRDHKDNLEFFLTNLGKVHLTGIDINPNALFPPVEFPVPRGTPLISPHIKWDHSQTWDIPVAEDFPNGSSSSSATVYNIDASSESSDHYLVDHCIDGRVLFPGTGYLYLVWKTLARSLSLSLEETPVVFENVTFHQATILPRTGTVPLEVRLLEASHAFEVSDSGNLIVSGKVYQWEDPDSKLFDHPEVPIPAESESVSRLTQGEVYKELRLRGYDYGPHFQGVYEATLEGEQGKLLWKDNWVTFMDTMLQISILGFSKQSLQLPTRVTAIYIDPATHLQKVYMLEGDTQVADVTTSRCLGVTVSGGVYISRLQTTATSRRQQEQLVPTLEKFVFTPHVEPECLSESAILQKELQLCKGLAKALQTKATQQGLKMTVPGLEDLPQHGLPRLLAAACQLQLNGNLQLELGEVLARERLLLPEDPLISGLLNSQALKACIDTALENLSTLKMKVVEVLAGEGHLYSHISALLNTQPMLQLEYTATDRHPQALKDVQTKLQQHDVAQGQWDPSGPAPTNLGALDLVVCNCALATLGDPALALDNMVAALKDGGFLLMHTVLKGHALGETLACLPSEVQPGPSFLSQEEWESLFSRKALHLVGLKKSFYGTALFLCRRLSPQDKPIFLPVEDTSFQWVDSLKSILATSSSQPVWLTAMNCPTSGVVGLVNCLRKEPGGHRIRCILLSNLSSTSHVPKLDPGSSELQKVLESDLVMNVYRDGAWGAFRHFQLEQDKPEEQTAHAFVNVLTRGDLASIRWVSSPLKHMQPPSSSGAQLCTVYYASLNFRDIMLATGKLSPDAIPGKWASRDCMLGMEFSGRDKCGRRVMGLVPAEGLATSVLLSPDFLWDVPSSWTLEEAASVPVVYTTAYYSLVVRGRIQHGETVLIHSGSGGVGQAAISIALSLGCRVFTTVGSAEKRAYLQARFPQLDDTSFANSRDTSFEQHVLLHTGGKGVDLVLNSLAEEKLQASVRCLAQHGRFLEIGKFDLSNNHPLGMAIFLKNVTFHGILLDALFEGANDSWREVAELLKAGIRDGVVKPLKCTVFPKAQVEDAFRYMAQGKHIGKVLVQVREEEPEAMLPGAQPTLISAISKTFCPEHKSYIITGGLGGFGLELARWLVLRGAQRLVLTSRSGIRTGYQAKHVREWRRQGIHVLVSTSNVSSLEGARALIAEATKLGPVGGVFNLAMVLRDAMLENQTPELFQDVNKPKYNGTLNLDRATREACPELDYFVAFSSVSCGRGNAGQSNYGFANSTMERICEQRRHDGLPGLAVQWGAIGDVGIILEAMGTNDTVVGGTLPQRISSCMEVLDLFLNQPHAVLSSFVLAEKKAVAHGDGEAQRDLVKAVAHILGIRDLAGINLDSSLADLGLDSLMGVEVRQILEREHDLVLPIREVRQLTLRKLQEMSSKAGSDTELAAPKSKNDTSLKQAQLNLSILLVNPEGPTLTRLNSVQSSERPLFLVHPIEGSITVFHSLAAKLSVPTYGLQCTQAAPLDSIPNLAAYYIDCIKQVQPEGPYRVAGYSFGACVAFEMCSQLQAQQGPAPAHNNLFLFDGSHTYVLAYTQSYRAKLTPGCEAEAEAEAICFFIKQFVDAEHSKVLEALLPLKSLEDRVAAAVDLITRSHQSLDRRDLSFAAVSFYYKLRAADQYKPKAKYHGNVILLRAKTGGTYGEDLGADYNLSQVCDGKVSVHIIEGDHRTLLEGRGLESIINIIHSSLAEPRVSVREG

Row | SMILES | pEC50 [1] | pIC50 [3] | pIC50 [1] | half-life [4] | Papp [5] | CC50 at 72 h [2]
1 | Cc1ccc(C(=O)N2CCC(c3ccc(C#N)cc3)CC2)cc1-c1nc2cc(N3CCN(C)CC3)ncc2[nH]1 | 6.08 | – | – | – | – | 15000 nM
2 | N#Cc1ccc(C2CCN(C(=O)c3cccc(-c4nc5cc(N6CCCC6)ncc5[nH]4)c3)CC2)cc1 | 6.26 | 5.53 | – | – | – | > 3000 nM
3 | Cc1cc(C)c(-c2nc3nc(N4CCC4)ccc3[nH]2)cc1C(=O)N1CCC(c2ccc(C#N)cc2)CC1 | 6.51 | – | – | – | – | > 3000 nM
4 | Cc1ccc(-c2nc3cc(N4CCCC4)ncc3[nH]2)cc1C(=O)N1CCC(c2ccc(C#N)cc2)CC1 | 6.82 | – | – | – | – | 8600 nM
5 | Cc1cc(C)c(-c2nc3cc(N4CCOCC4)ncc3[nH]2)cc1C(=O)N1CCC(c2ccc(C#N)cc2)CC1 | 7.40 | – | – | – | – | > 3000 nM
6 | Cc1ccc(C(=O)N2CCC(c3ccc(C#N)cc3)CC2)cc1NC(=O)c1ccc(N2CCCC2)nc1 | – | 5.40 | – | – | – | –
7 | Cc1ccc(C(=O)N2CCC(c3ccc(C#N)cc3)CC2)cc1-c1nc2cc(N3CCC3)ncc2[nH]1 | 7.04 | – | – | – | – | > 20000 nM
8 | Cc1cc(C(=O)N2CCC(c3ccc(C#N)cc3)CC2)cc(-c2nc3cc(N4CCCC4)ncc3[nH]2)c1 | < 5.00 | – | – | – | – | > 10000 nM
9 | Cc1c(C(=O)N2CCC(c3ccc(C#N)cc3)CC2)cccc1-c1nc2cc(N3CCCC3)ncc2[nH]1 | < 5.00 | – | – | – | – | 1900 nM

More lines, main results first:

Row | pEC50 [1] | pIC50 [3] | pIC50 [1] | half-life [4] | Papp [5] | SMILES | CC50 at 72 h [2]
10 | 6.89 | 5.41 | – | – | – | Cc1cc(C)c(-c2nc3cc(S(C)(=O)=O)cnc3[nH]2)cc1C(=O)N1CCC(c2ccc(C#N)cc2)CC1 | > 20000 nM
11 | 7.08 | 6.50 | – | – | – | COCCN(C)c1cc2nc(-c3cc(C(=O)N4CCC(c5ccc(C#N)cc5)CC4)c(C)cc3C)[nH]c2cn1 | > 20000 nM
12 | – | < 4.30 | < 4.30 | – | – | Cc1ccc(C(=O)N2CCC(c3ccc(C#N)cc3)CC2)cc1-c1nc2ccncc2[nH]1 | –
13 | 6.76 | – | – | > 10 h | 8 ×10⁻⁶ cm/s | Cc1ccc(C(=O)N2CCC(c3ccc(C#N)cc3)CC2)cc1-c1nc2cc(N3CCCC3)ncc2[nH]1 | > 20000 nM
14 | – | < 4.30 | < 4.30 | – | – | Cc1ccc(C(=O)N2CCC(c3ccc(C#N)cc3)CC2)cc1-c1nc2ccccc2[nH]1 | –
